# Assay results from ChEMBL document CHEMBL3885881, “DrugMatrix”.
# Species: Rattus norvegicus
# Assay: DrugMatrix - Regimen: Daily Repeat
# Format: toxicity, organism-based, Sprague-Dawley
# Design: regimen Daily Repeat, gender Male, age 6-8 weeks
# Settings: in vivo, po, route oral GAVAGE, vehicle 100 % WATER; for ABSOLUTE BASOPHIL / ABSOLUTE EOSINOPHIL / ABSOLUTE LYMPHOCYTE / ABSOLUTE MONOCYTE / ABSOLUTE SEGMENTED NEUTROPHIL / BASOPHIL / EOSINOPHIL / ERYTHROCYTE COUNT / HEMATOCRIT / HEMOGLOBIN / LEUKOCYTE COUNT / LYMPHOCYTE / MEAN CORPUSCULAR HEMOGLOBIN / MEAN CORPUSCULAR HEMOGLOBIN CONCENTRATION / MEAN CORPUSCULAR VOLUME / MONOCYTE / NEUTROPHIL / NUCLEATED RED BLOOD CELLS / PLATELET COUNT: tissue Blood; for ALANINE AMINOTRANSFERASE / ALBUMIN / ALKALINE PHOSPHATASE / ASPARTATE AMINOTRANSFERASE / BLOOD UREA NITROGEN / CARBON DIOXIDE / CHLORIDE / CHOLESTEROL / CREATINE PHOSPHOKINASE / CREATININE / GLUCOSE / LIPASE / PHOSPHORUS / POTASSIUM / SODIUM / TOTAL BILIRUBIN / TOTAL PROTEIN / URIC ACID: tissue Plasma
# [1] = 0 mg/kg, 72 h, dose level Control, time 3 day
# [2] = 0 mg/kg, 120 h, dose level Control, time 5 day
# [3] = 175 mg/kg, 72 h, dose level High, time 3 day
compound,measurement,setting,value
CC(C)NCC(O)COc1cccc2ccccc12 (stereo unspecified) [PROPRANOLOL],ABSOLUTE BASOPHIL,[1],0 CELLS/uL
same,ABSOLUTE EOSINOPHIL,[1],46 CELLS/uL
same,ABSOLUTE LYMPHOCYTE,[1],10225.67 CELLS/uL
same,ABSOLUTE MONOCYTE,[1],319.33 CELLS/uL
same,ABSOLUTE SEGMENTED NEUTROPHIL,[1],1242.33 CELLS/uL
same,BASOPHIL,[1],0%
same,EOSINOPHIL,[1],0.33%
same,ERYTHROCYTE COUNT,[1],5.17 x10E6/uL
same,HEMATOCRIT,[1],33.43%
same,HEMOGLOBIN,[1],12.55 G/DL
same,LEUKOCYTE COUNT,[1],11.83 x10E3/uL
same,LYMPHOCYTE,[1],86.5%
same,MEAN CORPUSCULAR HEMOGLOBIN,[1],24.35 pg
same,MEAN CORPUSCULAR HEMOGLOBIN CONCENTRATION,[1],37.57 G/DL
same,MEAN CORPUSCULAR VOLUME,[1],64.8 fL
same,MONOCYTE,[1],2.67%
same,NEUTROPHIL,[1],10.5%
same,NUCLEATED RED BLOOD CELLS,[1],0.17 /100WBC
same,PLATELET COUNT,[1],1026.17 x10E3/uL
same,ALANINE AMINOTRANSFERASE,[1],52.67 u/L
same,ALBUMIN,[1],4.17 G/DL
same,ALKALINE PHOSPHATASE,[1],331 u/L
same,ASPARTATE AMINOTRANSFERASE,[1],92.33 u/L
same,BLOOD UREA NITROGEN,[1],15.33 mg/dL
same,CARBON DIOXIDE,[1],26.17 mmol/L
same,CHLORIDE,[1],103.17 MEQ/L
same,CHOLESTEROL,[1],73.67 mg/dL
same,CREATINE PHOSPHOKINASE,[1],472.83 u/L
same,CREATININE,[1],0.29 mg/dL
same,GLUCOSE,[1],178.5 mg/dL
same,LIPASE,[1],10.67 u/L
same,PHOSPHORUS,[1],12.45 mg/dL
same,POTASSIUM,[1],6.35 MEQ/L
same,SODIUM,[1],144.27 MEQ/L
same,TOTAL BILIRUBIN,[1],0.13 mg/dL
same,TOTAL PROTEIN,[1],5.77 G/DL
same,URIC ACID,[1],2.08 mg/dL
same,ABSOLUTE BASOPHIL,[2],0 CELLS/uL
same,ABSOLUTE EOSINOPHIL,[2],23.5 CELLS/uL
same,ABSOLUTE LYMPHOCYTE,[2],12797.33 CELLS/uL
same,ABSOLUTE MONOCYTE,[2],465.5 CELLS/uL
same,ABSOLUTE SEGMENTED NEUTROPHIL,[2],1313.67 CELLS/uL
same,BASOPHIL,[2],0%
same,EOSINOPHIL,[2],0.17%
same,ERYTHROCYTE COUNT,[2],5.76 x10E6/uL
same,HEMATOCRIT,[2],36.72%
same,HEMOGLOBIN,[2],13.72 G/DL
same,LEUKOCYTE COUNT,[2],14.6 x10E3/uL
same,LYMPHOCYTE,[2],87.5%
same,MEAN CORPUSCULAR HEMOGLOBIN,[2],23.8 pg
same,MEAN CORPUSCULAR HEMOGLOBIN CONCENTRATION,[2],37.35 G/DL
same,MEAN CORPUSCULAR VOLUME,[2],63.72 fL
same,MONOCYTE,[2],3.17%
same,NEUTROPHIL,[2],9.17%
same,NUCLEATED RED BLOOD CELLS,[2],0.33 /100WBC
same,PLATELET COUNT,[2],1270.67 x10E3/uL
same,ALANINE AMINOTRANSFERASE,[2],50.5 u/L
same,ALBUMIN,[2],4.32 G/DL
same,ALKALINE PHOSPHATASE,[2],339.67 u/L
same,ASPARTATE AMINOTRANSFERASE,[2],88 u/L
same,BLOOD UREA NITROGEN,[2],17 mg/dL
same,CARBON DIOXIDE,[2],25 mmol/L
same,CHLORIDE,[2],103.83 MEQ/L
same,CHOLESTEROL,[2],71.33 mg/dL
same,CREATINE PHOSPHOKINASE,[2],281.83 u/L
same,CREATININE,[2],0.26 mg/dL
same,GLUCOSE,[2],161.67 mg/dL
same,LIPASE,[2],10.17 u/L
same,PHOSPHORUS,[2],11.72 mg/dL
same,POTASSIUM,[2],6.76 MEQ/L
same,SODIUM,[2],145.17 MEQ/L
same,TOTAL BILIRUBIN,[2],0.2 mg/dL
same,TOTAL PROTEIN,[2],6.15 G/DL
same,URIC ACID,[2],2 mg/dL
same,ABSOLUTE BASOPHIL,[3],0 CELLS/uL
same,ABSOLUTE EOSINOPHIL,[3],124 CELLS/uL
same,ABSOLUTE LYMPHOCYTE,[3],11451.33 CELLS/uL
same,ABSOLUTE MONOCYTE,[3],0 CELLS/uL
same,ABSOLUTE SEGMENTED NEUTROPHIL,[3],824.67 CELLS/uL
same,BASOPHIL,[3],0%
same,EOSINOPHIL,[3],1%
same,ERYTHROCYTE COUNT,[3],5.24 x10E6/uL
same,HEMATOCRIT,[3],34.07%
same,HEMOGLOBIN,[3],12.73 G/DL
same,LEUKOCYTE COUNT,[3],12.4 x10E3/uL
same,LYMPHOCYTE,[3],92%
same,MEAN CORPUSCULAR HEMOGLOBIN,[3],24.3 pg
same,MEAN CORPUSCULAR HEMOGLOBIN CONCENTRATION,[3],37.37 G/DL
same,MEAN CORPUSCULAR VOLUME,[3],65.07 fL
same,MONOCYTE,[3],0%
same,NEUTROPHIL,[3],7%
same,NUCLEATED RED BLOOD CELLS,[3],0 /100WBC
same,PLATELET COUNT,[3],1403.33 x10E3/uL
same,ALANINE AMINOTRANSFERASE,[3],49 u/L
same,ALBUMIN,[3],4.2 G/DL
same,ALKALINE PHOSPHATASE,[3],411 u/L
same,ASPARTATE AMINOTRANSFERASE,[3],73.33 u/L
same,BLOOD UREA NITROGEN,[3],14.33 mg/dL
same,CARBON DIOXIDE,[3],24 mmol/L
same,CHLORIDE,[3],103 MEQ/L
same,CHOLESTEROL,[3],75.33 mg/dL
same,CREATINE PHOSPHOKINASE,[3],253.33 u/L
same,CREATININE,[3],0.21 mg/dL
same,GLUCOSE,[3],152.33 mg/dL
same,LIPASE,[3],9 u/L
same,PHOSPHORUS,[3],13.13 mg/dL
same,POTASSIUM,[3],6.83 MEQ/L
same,SODIUM,[3],143.67 MEQ/L
same,TOTAL BILIRUBIN,[3],0.13 mg/dL
same,TOTAL PROTEIN,[3],5.77 G/DL
same,URIC ACID,[3],2.97 mg/dL
